Patent US6689773B2, “Uracil substituted phenyl sulfamoyl carboxamides” (BASF Aktiengesellschaft, priority 2000, dated 2004)

What was measured:
Type in all cases: in vivo
[1] = test system: ALOMY, Blackgrass, Alopecurus myosuroides; experiment: Preemergence herbicidal evaluation (Example 148); settings: rating scale 0-9, two to four weeks after treatment
Method in brief: (§1)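 Visual scoring against control (stand, vigor, malformation, size, chlorosis, overall appearance) took place two to four weeks post-spray in the greenhouse. Compound in aqueous acetone was applied to freshly seeded soil cups at roughly 0.125–0.250 kg/ha. Values from multiple tests were averaged.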

[2] = test system: SETVI, Green foxtail, Setaria viridis, (L.)Beau; experiment: Preemergence herbicidal evaluation (Example 148); settings: rating scale 0-9, two to four weeks after treatment
Method in brief: as §1

[3] = test system: DIGSA, Crabgrass, (Hairy) L, Digitaria sanguinalis, (L)Scop; experiment: Preemergence herbicidal evaluation (Example 148); settings: rating scale 0-9, two to four weeks after treatment
Method in brief: as §1

[4] = test system: CHEAL, Lambsquarters, Chenopodium album, L. Common; experiment: Preemergence herbicidal evaluation (Example 148); settings: rating scale 0-9, two to four weeks after treatment
Method in brief: as §1

[5] = test system: TRZAW, Winter wheat, Tritium Aestivum, L. (Winter); experiment: Preemergence herbicidal evaluation (Example 148); settings: rating scale 0-9, two to four weeks after treatment
Method in brief: as §1

[6] = test system: IPOHE, Morningglory, Ivyleaf, Ipomoea hederacea, (L)Jacq.; experiment: Preemergence herbicidal evaluation (Example 148); settings: rating scale 0-9, two to four weeks after treatment
Method in brief: as §1

[7] = test system: ABUTH, Velvetleaf, Abutilon theophrasti, Medic.; experiment: Preemergence herbicidal evaluation (Example 148); settings: rating scale 0-9, two to four weeks after treatment
Method in brief: as §1

[8] = test system: ECHCG, Barnyardgrass, Echinochloa crusgalli, (L.)Beau; experiment: Preemergence herbicidal evaluation (Example 148); settings: rating scale 0-9, two to four weeks after treatment
Method in brief: as §1

[9] = test system: ZEAMX, Field corn, Zea mays L.; experiment: Preemergence herbicidal evaluation (Example 148); settings: rating scale 0-9, two to four weeks after treatment
Method in brief: as §1

[10] = test system: GLXMA, Soybean, Glycine max, (L.) Merr.; experiment: Preemergence herbicidal evaluation (Example 148); settings: rating scale 0-9, two to four weeks after treatment
Method in brief: as §1

[11] = test system: AMBEL, Ragweed, Common, Ambrosia artemiisifolia, L.; experiment: Preemergence herbicidal evaluation (Example 148); settings: rating scale 0-9, two to four weeks after treatment
Method in brief: as §1

[12] = test system: XANST, Cocklebur, Xanthium strumariam; experiment: Preemergence herbicidal evaluation (Example 148); settings: rating scale 0-9, two to four weeks after treatment
Method in brief: as §1

[13] = test system: ALOMY, Blackgrass, Alopecurus myosuroides; experiment: Postemergence herbicidal evaluation (Example 147); settings: rating scale 0-9, two to three weeks after treatment
Method in brief: (§2)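 Spray carrier: 80/20 acetone/water, 1.0% SUN-IT II methylated seed oil; rate about 0.016 to 0.032 kg/ha at 40 psi onto two-week seedlings. Assessment: plant stand, vigor, chlorosis and malformation scored 0-9 versus control, two to three weeks after treatment.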

[14] = test system: SETVI, Green foxtail, Setaria viridis, (L.)Beau; experiment: Postemergence herbicidal evaluation (Example 147); settings: rating scale 0-9, two to three weeks after treatment
Method in brief: as §2

[15] = test system: DIGSA, Crabgrass, (Hairy) L, Digitaria sanguinalis, (L)Scop; experiment: Postemergence herbicidal evaluation (Example 147); settings: rating scale 0-9, two to three weeks after treatment
Method in brief: as §2

[16] = test system: CHEAL, Lambsquarters, Chenopodium album, L. Common; experiment: Postemergence herbicidal evaluation (Example 147); settings: rating scale 0-9, two to three weeks after treatment
Method in brief: as §2

[17] = test system: TRZAW, Winter wheat, Tritium Aestivum, L. (Winter); experiment: Postemergence herbicidal evaluation (Example 147); settings: rating scale 0-9, two to three weeks after treatment
Method in brief: as §2

[18] = test system: IPOHE, Morningglory, Ivyleaf, Ipomoea hederacea, (L)Jacq.; experiment: Postemergence herbicidal evaluation (Example 147); settings: rating scale 0-9, two to three weeks after treatment
Method in brief: as §2

[19] = test system: ABUTH, Velvetleaf, Abutilon theophrasti, Medic.; experiment: Postemergence herbicidal evaluation (Example 147); settings: rating scale 0-9, two to three weeks after treatment
Method in brief: as §2

[20] = test system: ECHCG, Barnyardgrass, Echinochloa crusgalli, (L.)Beau; experiment: Postemergence herbicidal evaluation (Example 147); settings: rating scale 0-9, two to three weeks after treatment
Method in brief: as §2

[21] = test system: ZEAMX, Field corn, Zea mays L.; experiment: Postemergence herbicidal evaluation (Example 147); settings: rating scale 0-9, two to three weeks after treatment
Method in brief: as §2

[22] = test system: GLXMA, Soybean, Glycine max, (L.) Merr.; experiment: Postemergence herbicidal evaluation (Example 147); settings: rating scale 0-9, two to three weeks after treatment
Method in brief: as §2

[23] = test system: AMBEL, Ragweed, Common, Ambrosia artemiisifolia, L.; experiment: Postemergence herbicidal evaluation (Example 147); settings: rating scale 0-9, two to three weeks after treatment
Method in brief: as §2

[24] = test system: XANST, Cocklebur, Xanthium strumariam; experiment: Postemergence herbicidal evaluation (Example 147); settings: rating scale 0-9, two to three weeks after treatment
Method in brief: as §2

## CCNS(=O)(=O)NC(=O)c1cc(-n2c(=O)cc(C(F)(F)F)n(C)c2=O)c(F)cc1Cl [Example 80]
[1]; rate 0.125 kg/ha
  Preemergence herbicidal rating ALMOY: 0.0
[1]; rate 0.25 kg/ha
  Preemergence herbicidal rating ALMOY: 0.0
[2]; rate 0.125 kg/ha
  Preemergence herbicidal rating SETVI: 0.0
[2]; rate 0.25 kg/ha
  Preemergence herbicidal rating SETVI: 0.0
[3]; rate 0.125 kg/ha
  Preemergence herbicidal rating DIGSA: 0.0
[3]; rate 0.25 kg/ha
  Preemergence herbicidal rating DIGSA: 1.0
[4]; rate 0.125 kg/ha
  Preemergence herbicidal rating CHEAL: 5.0
[4]; rate 0.25 kg/ha
  Preemergence herbicidal rating CHEAL: 8.0
[5]; rate 0.125 kg/ha
  Preemergence herbicidal rating TRZAW: 0.0
[5]; rate 0.25 kg/ha
  Preemergence herbicidal rating TRZAW: 0.0
[6]; rate 0.125 kg/ha
  Preemergence herbicidal rating IPOHE: 0.0
[6]; rate 0.25 kg/ha
  Preemergence herbicidal rating IPOHE: 0.0
[7]; rate 0.125 kg/ha
  Preemergence herbicidal rating ABUTH: 1.0
[7]; rate 0.25 kg/ha
  Preemergence herbicidal rating ABUTH: 5.0
[8]; rate 0.125 kg/ha
  Preemergence herbicidal rating ECHCG: 0.0
[8]; rate 0.25 kg/ha
  Preemergence herbicidal rating ECHCG: 3.0
[9]; rate 0.125 kg/ha
  Preemergence herbicidal rating ZEAMX: 0.0
[9]; rate 0.25 kg/ha
  Preemergence herbicidal rating ZEAMX: 0.0
[10]; rate 0.125 kg/ha
  Preemergence herbicidal rating GLXMA: 0.0
[10]; rate 0.25 kg/ha
  Preemergence herbicidal rating GLXMA: 0.0
[11]; rate 0.125 kg/ha
  Preemergence herbicidal rating AMBEL: 1.0
[11]; rate 0.25 kg/ha
  Preemergence herbicidal rating AMBEL: 3.0
[12]; rate 0.125 kg/ha
  Preemergence herbicidal rating XANST: 0.0
[12]; rate 0.25 kg/ha
  Preemergence herbicidal rating XANST: 1.0
[13]; rate 0.016 kg/ha
  Postemergence herbicidal rating ALMOY: 0.0
[13]; rate 0.032 kg/ha
  Postemergence herbicidal rating ALMOY: 1.0
[14]; rate 0.016 kg/ha
  Postemergence herbicidal rating SETVI: 5.0
[14]; rate 0.032 kg/ha
  Postemergence herbicidal rating SETVI: 6.0
[15]; rate 0.016 kg/ha
  Postemergence herbicidal rating DIGSA: 3.0
[15]; rate 0.032 kg/ha
  Postemergence herbicidal rating DIGSA: 4.0
[16]; rate 0.016 kg/ha
  Postemergence herbicidal rating CHEAL: 3.0
[16]; rate 0.032 kg/ha
  Postemergence herbicidal rating CHEAL: 4.0
[17]; rate 0.016 kg/ha
  Postemergence herbicidal rating TRZAW: 3.0
[17]; rate 0.032 kg/ha
  Postemergence herbicidal rating TRZAW: 4.0
[18]; rate 0.016 kg/ha
  Postemergence herbicidal rating IPOHE: 9.0
[18]; rate 0.032 kg/ha
  Postemergence herbicidal rating IPOHE: 9.0
[19]; rate 0.016 kg/ha
  Postemergence herbicidal rating ABUTH: 7.0
[19]; rate 0.032 kg/ha
  Postemergence herbicidal rating ABUTH: 9.0
[20]; rate 0.016 kg/ha
  Postemergence herbicidal rating ECHCG: 4.0
[20]; rate 0.032 kg/ha
  Postemergence herbicidal rating ECHCG: 6.0
[21]; rate 0.016 kg/ha
  Postemergence herbicidal rating ZEAMX: 1.5
[21]; rate 0.032 kg/ha
  Postemergence herbicidal rating ZEAMX: 4.0
[22]; rate 0.016 kg/ha
  Postemergence herbicidal rating GLXMA: 8.0
[22]; rate 0.032 kg/ha
  Postemergence herbicidal rating GLXMA: 8.0
[23]; rate 0.016 kg/ha
  Postemergence herbicidal rating AMBEL: 7.0
[23]; rate 0.032 kg/ha
  Postemergence herbicidal rating AMBEL: 8.0
[24]; rate 0.016 kg/ha
  Postemergence herbicidal rating XANST: 8.0
[24]; rate 0.032 kg/ha
  Postemergence herbicidal rating XANST: 9.0

## CN(Cc1ccccc1)S(=O)(=O)NC(=O)c1cc(-n2c(=O)cc(C(F)(F)F)n(C)c2=O)c(F)cc1Cl [Example 61]
[1]; rate 0.125 kg/ha
  Preemergence herbicidal rating ALMOY: 0.0
[1]; rate 0.25 kg/ha
  Preemergence herbicidal rating ALMOY: 0.0
[2]; rate 0.125 kg/ha
  Preemergence herbicidal rating SETVI: 3.0
[2]; rate 0.25 kg/ha
  Preemergence herbicidal rating SETVI: 6.0
[3]; rate 0.125 kg/ha
  Preemergence herbicidal rating DIGSA: 6.0
[3]; rate 0.25 kg/ha
  Preemergence herbicidal rating DIGSA: 9.0
[4]; rate 0.125 kg/ha
  Preemergence herbicidal rating CHEAL: 9.0
[4]; rate 0.25 kg/ha
  Preemergence herbicidal rating CHEAL: 9.0
[5]; rate 0.125 kg/ha
  Preemergence herbicidal rating TRZAW: 2.0
[5]; rate 0.25 kg/ha
  Preemergence herbicidal rating TRZAW: 3.0
[6]; rate 0.125 kg/ha
  Preemergence herbicidal rating IPOHE: 9.0
[6]; rate 0.25 kg/ha
  Preemergence herbicidal rating IPOHE: 9.0
[7]; rate 0.125 kg/ha
  Preemergence herbicidal rating ABUTH: 9.0
[7]; rate 0.25 kg/ha
  Preemergence herbicidal rating ABUTH: 9.0
[8]; rate 0.125 kg/ha
  Preemergence herbicidal rating ECHCG: 4.0
[8]; rate 0.25 kg/ha
  Preemergence herbicidal rating ECHCG: 7.0
[9]; rate 0.125 kg/ha
  Preemergence herbicidal rating ZEAMX: 2.0
[9]; rate 0.25 kg/ha
  Preemergence herbicidal rating ZEAMX: 2.0
[10]; rate 0.125 kg/ha
  Preemergence herbicidal rating GLXMA: 9.0
[10]; rate 0.25 kg/ha
  Preemergence herbicidal rating GLXMA: 9.0
[11]; rate 0.125 kg/ha
  Preemergence herbicidal rating AMBEL: 9.0
[11]; rate 0.25 kg/ha
  Preemergence herbicidal rating AMBEL: 9.0
[12]; rate 0.125 kg/ha
  Preemergence herbicidal rating XANST: 9.0
[12]; rate 0.25 kg/ha
  Preemergence herbicidal rating XANST: 9.0
[13]; rate 0.016 kg/ha
  Postemergence herbicidal rating ALMOY: 1.0
[13]; rate 0.032 kg/ha
  Postemergence herbicidal rating ALMOY: 1.0
[14]; rate 0.016 kg/ha
  Postemergence herbicidal rating SETVI: 7.0
[14]; rate 0.032 kg/ha
  Postemergence herbicidal rating SETVI: 9.0
[15]; rate 0.016 kg/ha
  Postemergence herbicidal rating DIGSA: 7.0
[15]; rate 0.032 kg/ha
  Postemergence herbicidal rating DIGSA: 6.0
[16]; rate 0.016 kg/ha
  Postemergence herbicidal rating CHEAL: 9.0
[16]; rate 0.032 kg/ha
  Postemergence herbicidal rating CHEAL: 8.0
[17]; rate 0.016 kg/ha
  Postemergence herbicidal rating TRZAW: 6.0
[17]; rate 0.032 kg/ha
  Postemergence herbicidal rating TRZAW: 6.5
[18]; rate 0.016 kg/ha
  Postemergence herbicidal rating IPOHE: 8.0
[18]; rate 0.032 kg/ha
  Postemergence herbicidal rating IPOHE: 9.0
[19]; rate 0.016 kg/ha
  Postemergence herbicidal rating ABUTH: 9.0
[19]; rate 0.032 kg/ha
  Postemergence herbicidal rating ABUTH: 9.0
[20]; rate 0.016 kg/ha
  Postemergence herbicidal rating ECHCG: 7.0
[20]; rate 0.032 kg/ha
  Postemergence herbicidal rating ECHCG: 8.0
[21]; rate 0.016 kg/ha
  Postemergence herbicidal rating ZEAMX: 7.5
[21]; rate 0.032 kg/ha
  Postemergence herbicidal rating ZEAMX: 7.5
[22]; rate 0.016 kg/ha
  Postemergence herbicidal rating GLXMA: 8.5
[22]; rate 0.032 kg/ha
  Postemergence herbicidal rating GLXMA: 8.5
[23]; rate 0.016 kg/ha
  Postemergence herbicidal rating AMBEL: 9.0
[23]; rate 0.032 kg/ha
  Postemergence herbicidal rating AMBEL: 9.0
[24]; rate 0.016 kg/ha
  Postemergence herbicidal rating XANST: 9.0
[24]; rate 0.032 kg/ha
  Postemergence herbicidal rating XANST: 9.0
